{"source": "patent US20250345332A1", "about": "“APROCITENTAN FOR THE TREATMENT OF HYPERTENSION” (IDORSIA PHARMACEUTICALS LTD, priority 2022, published 2025)", "key": {"[1]": {"test_system": "patients with resistant hypertension", "test": "PRECISION phase 3 trial: trough unattended automated office blood pressure (uAOBP)", "assay_type": "in vivo, human", "conditions": "for office SBP at 4 weeks, difference versus placebo (SE): part 1 (primary endpoint); for least square mean (SE) change in office SBP at 4 weeks: part 1, on standardized background therapy; for office DBP decrease compared with placebo: week 4, part 1", "experimental": "(§1) A single, randomized study with three sequential treatment parts was designed. The study design addressed both the 4-week placebo-controlled efficacy of 12.5 and 25 mg aprocitentan (Part 1) and the durability of its effects in long-term active treatment with 25 mg aprocitentan for a further 32 weeks (Part 2) followed by a 12-week placebo-controlled withdrawal period with patients re-randomized to 25 mg or placebo (Part 3) (see for example Danaietash P et al; Identifying and treating resistant hypertension in PRECISION—a randomized long-term clinical trial with Aprocitentan. J Clin Hypertension 2022 (in press). Patients with uncontrolled BP (measured as unattended automated office BP) despite the use of three or more antihypertensive medications for at least 1 year were screened. They were switched to a single-tablet triple fixed combination antihypertensive therapy for at least 4 weeks before entering a single-blind placebo run-in period. The 4-week placebo run-in period further excluded placebo responders. The randomization period consisted of 3 sequential parts: • 1) a 4-week double-blind part with aprocitentan 12.5 mg, 25 mg, or placebo (1:1:1 ratio); • 2) a 32-week single-blind part with aprocitentan 25 mg; and • 3) a 12-week randomized withdrawal part with aprocitentan 25 mg or placebo (1:1 ratio).\nThe standardized byckground treatment (SBT) is a single-tablet triple fixed combination of a CCB (amlodipine), an ARB (valsartan), and a diuretic (hydrochlorothiazide); two dose strengths are available: 5/160/25 mg and 10/160/25 mg, respectively. The maximum tolerated dose strength is selected at the investigator's discretion during the treatment period of the study and must be kept stable for at least 1 week prior to randomization continuing through the end of the DB part and again during the DB-WD part. Patients who are treated with a β-blocker at screening will continue their treatment throughout the study.\nStudy treatment and SBT are to be taken every morning except on the morning of study visit days, where treatment is administered after the completion of the visit assessments and the measurement of BP.\nTrough uAOBP is measured at each visit with the same automated oscillometric sphygmomanometer (Microlife® WatchBP Office), which records 5 sitting BP readings (one per minute, first value excluded from the average), with the patient resting undisturbed, alone (unattended) in a quiet place for 5 minutes.\n(§2) • Part 1: Double-blind, randomized parallel-group and placebo-controlled and lasts for 4 weeks. Subjects received (1:1:1 ratio), 25 or 12.5 mg aprocitentan, or placebo. • Part 2: Single-blind and single-arm, lasts for 32 weeks. All subjects received aprocitentan 25 mg. • Part 3: Double-blind withdrawal. All subjects completing part 2 and entering part 3 are re-randomized (1:1 ratio) to either aprocitentan 25 mg or placebo.\nThe primary efficacy endpoint is the change from baseline to Week 4 of DB treatment in mean trough SiSBP measured as uAOBP, where baseline is defined as the last available measurement before the start of DB treatment. […]\n(§3) Other secondary efficacy endpoints include • changes from baseline to Week 4 and from DB-WD baseline to Week 40 in mean trough sitting diastolic blood pressure (SiDBP) measured as uAOBP. • and changes in systolic/diastolic BP measured by ABPM, including changes from baseline to Week 4 of DB treatment in 24-h mean SBP and DBP, changes from baseline to Week 4 in daytime and night-time mean SBP and DBP, changes from DB-WD baseline (Week 36) to Week 40 in 24-h mean SBP and DBP, and changes from DB-WD baseline (Week 36) to Week 40 in daytime and night-time mean SBP and DBP."}, "[2]": {"test_system": "patients with resistant hypertension", "test": "PRECISION phase 3 trial: ambulatory blood pressure monitoring (ABPM)", "assay_type": "in vivo, human", "conditions": "for 24 h ambulatory DBP, placebo-corrected decrease / 24 h ambulatory SBP, placebo-corrected decrease: end of part 1 (week 4)", "experimental": "as §1\nABPM is performed over a 24-hour period with the Mobil-O-Graph NG device at baseline, and Weeks 4, 36, and 40. Systolic BP and diastolic BP are measured every 20 minutes from 06:00-23:00 and every 30 minutes from 23:00-06:00. Monitoring is initiated between 06:00 and 11:00.\nas §2, §3"}, "[3]": {"test_system": "patients with resistant hypertension", "test": "PRECISION phase 3 trial: urine albumin-creatinine ratio (UACR)", "assay_type": "in vivo, human", "experimental": "as §1, §2\nIn a population with difficult-to control hypertension (mean age of 62 years, obesity [69.3% of subjects], >50% with diabetes mellitus, 22% with CKD stage 3-4), evaluation of UACR is important. […] The geometric mean UACR at baseline was 26.6 mg/g in the overall population. At Week 4, placebo-corrected reductions in UACR of 30% and 34% with aprocitentan 12.5 mg and 25 mg were noted, respectively."}, "[4]": {"test_system": "rat models of hypertension", "conditions": "cited from earlier work"}, "[5]": {"conditions": "subjects with CKD stage 3-4, baseline to Week 4"}, "[6]": {"conditions": "Black or African Americans, baseline to Week 4"}, "[7]": {"conditions": "part 3, after 4 weeks of withdrawal (week 40), aprocitentan 25 mg"}}, "note": "Entries after “also recorded” stand apart in the source; their conditions may differ.", "data": [{"smiles": "NS(=O)(=O)Nc1ncnc(OCCOc2ncc(Br)cn2)c1-c1ccc(Br)cc1", "note": "[aprocitentan, {5-(4-bromo-phenyl)-6-[2-(5-bromo-pyrimidin-2-yloxy)-ethoxy]-pyrimidin-4-yl}-sulfamide]", "values": [{"measurement": "office SBP at 4 weeks, difference versus placebo (SE)", "setting": "[1]; aprocitentan 12.5 mg", "value": "statistically significant and clinically meaningful reduction"}, {"measurement": "least square mean (SE) change in office SBP at 4 weeks", "setting": "[1]; aprocitentan 12.5 mg", "value": "−15.3 (0.9) mm Hg"}, {"measurement": "office DBP decrease compared with placebo", "setting": "[1]; aprocitentan 12.5 mg", "value": "−3.9", "unit": "mm Hg"}, {"measurement": "office blood pressure reduction from baseline during part 2", "setting": "[1]; aprocitentan 25 mg, 32-week single-blind part 2, patients previously on aprocitentan", "value": "maintained"}, {"measurement": "office SBP at 4 weeks, difference versus placebo (SE)", "setting": "[1]; aprocitentan 25 mg", "value": "statistically significant and clinically meaningful reduction"}, {"measurement": "least square mean (SE) change in office SBP at 4 weeks", "setting": "[1]; aprocitentan 25 mg", "value": "−15.2 (0.9) mm Hg"}, {"measurement": "office DBP decrease compared with placebo", "setting": "[1]; aprocitentan 25 mg", "value": "−4.5", "unit": "mm Hg"}, {"measurement": "office DBP increase with placebo compared with aprocitentan", "setting": "[1]; part 3, after 4 weeks of withdrawal, aprocitentan 25 mg", "value": 5.2, "unit": "mm Hg"}, {"measurement": "difference 25 mg versus 12.5 mg in LS mean reduction, primary endpoint SiSBP", "setting": "[1]; [5]", "value": "up to −5.88 mmHg"}, {"measurement": "further decrease in SiSBP with 25 mg compared with 12.5 mg", "setting": "[1]; [5]", "value": 44, "unit": "%"}, {"measurement": "difference 25 mg versus 12.5 mg in LS mean BP reduction with ABPM (night-time SBP)", "setting": "[2]; [6]", "value": "up to −5.90 mmHg"}, {"measurement": "further decrease in night-time SBP with 25 mg compared to 12.5 mg", "setting": "[2]; [6]", "value": "> 100", "unit": "%"}, {"measurement": "24 h ambulatory DBP, placebo-corrected decrease", "setting": "[2]; aprocitentan 12.5 mg", "value": "−4.3", "unit": "mm Hg"}, {"measurement": "24 h ambulatory SBP, placebo-corrected decrease", "setting": "[2]; aprocitentan 12.5 mg", "value": "−4.2", "unit": "mm Hg"}, {"measurement": "placebo-corrected SBP lowering effect during the daytime", "setting": "[2]; aprocitentan 12.5 mg, week 4", "value": "−3.8", "unit": "mm Hg"}, {"measurement": "placebo-corrected SBP lowering effect during the night time", "setting": "[2]; aprocitentan 12.5 mg, week 4", "value": "−5.1", "unit": "mm Hg"}, {"measurement": "24 h ambulatory DBP, placebo-corrected decrease", "setting": "[2]; aprocitentan 25 mg", "value": "−5.8", "unit": "mm Hg"}, {"measurement": "24 h ambulatory SBP, placebo-corrected decrease", "setting": "[2]; aprocitentan 25 mg", "value": "−5.9", "unit": "mm Hg"}, {"measurement": "placebo-corrected SBP lowering effect during the daytime", "setting": "[2]; aprocitentan 25 mg, week 4", "value": "−5.3", "unit": "mm Hg"}, {"measurement": "24 h ambulatory DBP increase with placebo compared with aprocitentan", "setting": "[2]; [7]", "value": 6.8, "unit": "mm Hg"}, {"measurement": "24 h ambulatory SBP increase with placebo compared with aprocitentan", "setting": "[2]; [7]", "value": 6.5, "unit": "mm Hg"}, {"measurement": "reduction in UACR", "setting": "[3]; aprocitentan 12.5 mg, subjects with CKD stage 3-4", "value": "−26", "unit": "%"}, {"measurement": "reduction in UACR", "setting": "[3]; aprocitentan 12.5 mg, subjects with baseline microalbuminuria", "value": "−43", "unit": "%"}, {"measurement": "UACR reduction during part 2", "setting": "[3]; aprocitentan 25 mg, single-blind part 2", "value": "maintained; also recorded: sustained"}, {"measurement": "reduction in UACR", "setting": "[3]; aprocitentan 25 mg, subjects with CKD stage 3-4", "value": "−45", "unit": "%"}, {"measurement": "reduction in UACR", "setting": "[3]; aprocitentan 25 mg, subjects with baseline microalbuminuria", "value": "−45", "unit": "%"}, {"measurement": "antiproteinuric effect (UACR change)", "setting": "[3]; patients with chronic kidney disease stage 3-4", "value": "−46", "unit": "%"}, {"measurement": "antiproteinuric effect (UACR change)", "setting": "[3]; patients with eGFR of 60 mL/min per 1.73 m^2 or higher", "value": "−26", "unit": "%"}, {"measurement": "antiproteinuric effect", "setting": "[3]; preliminary data, subjects with SGLT-2 inhibitor plus standardized antihypertensive background therapy, small sample size", "value": "improved antiproteinuric effect"}, {"measurement": "pharmacological effect in combination with ACE inhibitors such as enalapril", "setting": "[4]; in certain models", "value": "synergistic"}, {"measurement": "pharmacological effect in combination with angiotensin receptor blockers such as valsartan", "setting": "[4]; rat, in vivo", "value": "synergistic"}, {"measurement": "pharmacological effect in combination with calcium channel blockers such as amlodipine", "setting": "[4]; rat, in vivo", "value": "additive"}]}]}
